Source: US20260092179A1, “GENETICALLY MODIFIED HOST CELLS PRODUCING VIOLACEIN, ANALOGUES, AND DERIVATIVES THEREOF” (OCTARINE BIO APS, priority 2022, published 2026)

Assays:
Type in all cases: physicochemical
[1] = Temperature stability of dyed fabrics (colour fastness, ΔE); conditions: oven 80° c. for 4 h; for ΔE: before and after the stability test
Method: (§1) In order to assess the stability and colour fastness of violacein and violacein derivatives dyed onto fabrics, dyed fabrics were subjected to a number of conditions. Fabrics were dyed according to Example 18 and colour coordinates and colour change before and after exposure to a given condition were determined as described in Example 18. To measure temperature stability, fabrics were incubated in an oven set to 80° c. for 4 h. To measure stability under acid and alkaline conditions, fabrics were fully submerged in water solutions set to pH 8 with NaOH and pH 5 with HCl and incubated at room temperature for 30 minutes. Fabrics were then incubated at 37° c. for 4 h. To measure stability during laundering, fabrics were washed at 30° c. under the “mix” setting of a Siemens IQ300 washing machine, then dried in a Siemens IQ300 dryer until dry. To measure artificial light stability, fabrics were placed under an LED lamp at room temperature for 16 h. To measure UV light stability, fabrics were placed under a UV lamp at room temperature for 1 h.

[2] = Artificial light stability of dyed fabrics (colour fastness, ΔE); conditions: for ΔE: before vs after LED lamp, room temperature, 16 h
Method: as §1

[3] = Stability during laundering of dyed fabrics (colour fastness, ΔE); conditions: washed at 30° c.
Method: as §1

[4] = Acrylic, after test (LED lamp, room temperature, 16 h)
[5] = Bleached cotton, after test (LED lamp, room temperature, 16 h)
[6] = Diacetate, after test (LED lamp, room temperature, 16 h)
[7] = Nylon 6,6, after test (LED lamp, room temperature, 16 h)
[8] = Polyester, after test (LED lamp, room temperature, 16 h)
[9] = Wool, after test (LED lamp, room temperature, 16 h)

Compound O=C1NC(c2c[nH]c3ccc(O)cc23)=C/C1=C1\C(=O)Nc2ccccc21 [violacein] has an L ([1]; Acrylic, After test) of 62.99, an a ([1]; Acrylic, After test) of 2.58 and a b ([1]; Acrylic, After test) of −1.01. It also gave an L ([1]; Acrylic, Before test) of 64.83, an a ([1]; Acrylic, Before test) of 1.28 and a b ([1]; Acrylic, Before test) of 1.7. It also gave a ΔE ([1]; Acrylic) of 3.52, an L ([1]; Bleached cotton, After test) of 59.33 and an a ([1]; Bleached cotton, After test) of 3.72. For the same compound, the b ([1]; Bleached cotton, After test) was −8.18, the L ([1]; Bleached cotton, Before test) was 60.51 and the a ([1]; Bleached cotton, Before test) was 2.66. The b ([1]; Bleached cotton, Before test) was −6.54, the ΔE ([1]; Bleached cotton) was 2.28 and the L ([1]; Diacetate, After test) was 41.38. It also gave an a ([1]; Diacetate, After test) of 10.6, a b ([1]; Diacetate, After test) of −12.61 and an L ([1]; Diacetate, Before test) of 43.1. For the same compound, the a ([1]; Diacetate, Before test) was 8.4, the b ([1]; Diacetate, Before test) was −12.5 and the ΔE ([1]; Diacetate) was 2.79. It also gave an L ([1]; Nylon 6,6, After test) of 33.74, an a ([1]; Nylon 6,6, After test) of 5.53 and a b ([1]; Nylon 6,6, After test) of −19.85. It also gave an L ([1]; Nylon 6,6, Before test) of 34.91, an a ([1]; Nylon 6,6, Before test) of 5 and a b ([1]; Nylon 6,6, Before test) of −20.42. The ΔE ([1]; Nylon 6,6) was 1.41, the L ([1]; Polyester, After test) was 67.81 and the a ([1]; Polyester, After test) was 4.37. The b ([1]; Polyester, After test) was −3.55, the L ([1]; Polyester, Before test) was 68.98 and the a ([1]; Polyester, Before test) was 3.25. It also gave a b ([1]; Polyester, Before test) of −1.56, a ΔE ([1]; Polyester) of 2.57 and an L ([1]; Wool, After test) of 67.34. It also gave an a ([1]; Wool, After test) of 1.87, a b ([1]; Wool, After test) of −0.17 and an L ([1]; Wool, Before test) of 67. The a ([1]; Wool, Before test) was 1.5, the b ([1]; Wool, Before test) was 0.36 and the ΔE ([1]; Wool) was 0.73. It also gave an L [2, 4] of 69.82, an a [2, 4] of 3.01 and a b [2, 4] of 3.46. The L ([2]; Acrylic, before test) was 65.94, the a ([2]; Acrylic, before test) was 3.06 and the b ([2]; Acrylic, before test) was 1.37. The ΔE ([2]; Acrylic) was 4.41, the L [2, 5] was 62.61 and the a [2, 5] was 4.18. For the same compound, the b [2, 5] was −6.26, the L ([2]; Bleached cotton, before test) was 60.03 and the a ([2]; Bleached cotton, before test) was 2.81. It also gave a b ([2]; Bleached cotton, before test) of −7.43, a ΔE ([2]; Bleached cotton) of 3.15 and an L [2, 6] of 52.2. It also gave an a [2, 6] of 6.06, a b [2, 6] of 1.03 and an L ([2]; Diacetate, before test) of 43.88. It also gave an a ([2]; Diacetate, before test) of 8.03, a b ([2]; Diacetate, before test) of 13.02 and a ΔE ([2]; Diacetate) of 14.73. It also gave an L [2, 7] of 34.82, an a [2, 7] of 4.72 and a b [2, 7] of −17.83. For the same compound, the L ([2]; Nylon 6,6, before test) was 38.2, the a ([2]; Nylon 6,6, before test) was 11.52 and the b ([2]; Nylon 6,6, before test) was −16.9. For the same compound, the ΔE ([2]; Nylon 6,6) was 7.65, the L [2, 8] was 73.11 and the a [2, 8] was 2.28. It also gave a b [2, 8] of 1.66, an L ([2]; Polyester, before test) of 68.58 and an a ([2]; Polyester, before test) of 3.06. The b ([2]; Polyester, before test) was −1.75, the ΔE ([2]; Polyester) was 5.72 and the L [2, 9] was 71.32. It also gave an a [2, 9] of 1.18, a b [2, 9] of 3.25 and an L ([2]; Wool, before test) of 67.82. For the same compound, the a ([2]; Wool, before test) was 1.06, the b ([2]; Wool, before test) was 0.85 and the ΔE ([2]; Wool) was 4.25. It also gave an L ([3]; Acrylic, After test) of 76.54, an a ([3]; Acrylic, After test) of 1.43 and a b ([3]; Acrylic, After test) of 1.73. It also gave an L ([3]; Acrylic, Before test) of 62.97, an a ([3]; Acrylic, Before test) of 2.52 and a b ([3]; Acrylic, Before test) of 0.79. It also gave a ΔE ([3]; Acrylic, before and after the stability test) of 13.65, an L ([3]; Bleached cotton, After test) of 67.09 and an a ([3]; Bleached cotton, After test) of 2.56. The b ([3]; Bleached cotton, After test) was −9.43, the L ([3]; Bleached cotton, Before test) was 59.44 and the a ([3]; Bleached cotton, Before test) was 2.08. For the same compound, the b ([3]; Bleached cotton, Before test) was −7.15, the ΔE ([3]; Bleached cotton, before and after the stability test) was 8.00 and the L ([3]; Diacetate, After test) was 48.28. The a ([3]; Diacetate, After test) was 7.64, the b ([3]; Diacetate, After test) was −12.1 and the L ([3]; Diacetate, Before test) was 44.66. It also gave an a ([3]; Diacetate, Before test) of 6.86, a b ([3]; Diacetate, Before test) of −11.23 and a ΔE ([3]; Diacetate, before and after the stability test) of 3.80. It also gave an L ([3]; Nylon 6,6, After test) of 36.95, an a ([3]; Nylon 6,6, After test) of 5.38 and a b ([3]; Nylon 6,6, After test) of −21.45. It also gave an L ([3]; Nylon 6,6, Before test) of 34.78, an a ([3]; Nylon 6,6, Before test) of 4.7 and a b ([3]; Nylon 6,6, Before test) of −19.46. The ΔE ([3]; Nylon 6,6, before and after the stability test) was 3.02, the L ([3]; Polyester, After test) was 78.67 and the a ([3]; Polyester, After test) was 0.26. The b ([3]; Polyester, After test) was 0.27, the L ([3]; Polyester, Before test) was 69.07 and the a ([3]; Polyester, Before test) was 1.41. It also gave a b ([3]; Polyester, Before test) of −0.67, a ΔE ([3]; Polyester, before and after the stability test) of 9.71 and an L ([3]; Wool, After test) of 73.9. It also gave an a ([3]; Wool, After test) of 1.48, a b ([3]; Wool, After test) of 1.8 and an L ([3]; Wool, Before test) of 66.17. It also gave an a ([3]; Wool, Before test) of 1.43, a b ([3]; Wool, Before test) of 0.12 and a ΔE ([3]; Wool, before and after the stability test) of 7.91.
